From patent publication US20130190314A1, “DERIVATIVES OF 6-CYCLOAMINO-2-THIENYL-3-(PYRIDIN-4-YL)IMIDAZO[1,2-b]-PYRIDAZINE AND 6-CYCLOAMINO-2-FURANYL-3-(PYRIDIN-4-YL)IMIDAZO[1,2-b]-PYRIDAZINE, PREPARATION AND THERAPEUTIC USE THEREOF” (priority 2008, published 2013)

Columns and labels:
[1] = tested on: Mper1-luc Rat-1 (P2C4) fibroblasts; test: Circadian cell assay: mPer1-promoter luciferase reporter, period prolongation; assay type: cell-based; details: effective concentration that induced a 1-hour prolongation of the circadian period
Protocol: Mper1-luc Rat-1 (P2C4) fibroblast cultures were prepared by dividing the cultures every 3-4 days (approximately 10-20% of confluence) on 150 cm^2 degassed polystyrene tissue culture flasks (Falcon® #35-5001) and maintained in growth medium [EMEM (Cellgro #10-010-CV); 10% foetal bovine serum (FBS; Gibco #16000-044); and 50 I.U./ml of penicillin-streptomycin (Cellgro #30-001-CI)] at 37° C. and under 5% CO2.
Cells obtained from Rat-1 fibroblast cultures at 30-50% of confluence as described above were co-transfected with vectors containing the selectable marker for zeocin resistance for a stable transfection and a luciferase reporter gene controlled by the mPer-1 promoter. After 24 to 48 hours, the cultures were divided on 96-well plates and maintained in growth medium supplemented with 50-100 μg/ml of zeocin (Invitrogen® #45-0430) for 10-14 days. The zeocin-resistant stable transfectants were evaluated for the expression of the reporter gene by adding 100 μM luciferin (Promega® #E1603®) to the growth medium and by assaying the luciferase activity on a TopCount® scintillation counter (Packard Model #C384V00). The Rat-1 cell clones expressing both zeocin resistance and luciferase activity controlled by mPer1 were serum-shock synchronized with 50% horse serum [HS (Gibco® #16050-122)] and the activity of the circadian reporter was evaluated. The P2C4 clone of Mper1-luc Rat-1 fibroblasts was selected to test the compound.
Mper1-luc Rat-1 (P2C4) fibroblasts at 40-50% of confluence, obtained according to the protocol described above, were plated out onto 96-well opaque tissue culture plates (Perkin Elmer® #6005680). The cultures are maintained in growth medium supplemented with 100 μg/mL of zeocin (Invitrogen #45-0430) until they have reached 100% of confluence (48-72 h). The cultures were then synchronized with 100 μl of synchronization medium [EMEM (Cellgro #10-010-CV); 100 I.U./ml of penicillin-streptomycin (Cellgro #30-001-C1); HS at 50% (Gibco #16050-122)] for 2 hours at 37° C. and under 5% CO2. After synchronization, the cultures were rinsed with 100 μl of EMEM (Cellgro #10-010-CV) for 10 minutes at ambient temperature. After rinsing, the medium was replaced with 300 μl of CO2 independent medium [CO2I (Gibco #18045-088); 2 mM L-glutamine (Cellgro #25-005-C1); 100 I.U./ml of penicillin-streptomycin (Cellgro #30-001-C1); 100 μM luciferin (Promega #E 1603)]. […]
The period analysis was performed either by determining the interval between the relative light emission minima over several days or by Fourier transform. […] The data were analysed by adjusting a hyperbolic curve to the data expressed as change of period (Y-axis) as a function of the concentration of the test compound (X-axis) in the XLfit™ software, and the CE Delta (t+1 h) was interpolated from this curve.

[2] = target: T1, casein kinase 1 delta (human CK1 delta PV3665) (Homo sapiens, UniProt P48730); test: FRET fluorescence test (Z'Lyte kinase assay kit), phosphorylation of peptide substrate SER/THR 11; assay type: biochemical; details: peptide substrate 2 μM, ATP at 4 times the KM
T1 construct: purchased Invitrogen Corporation PV3665
T1 sequence (P48730 whole entry): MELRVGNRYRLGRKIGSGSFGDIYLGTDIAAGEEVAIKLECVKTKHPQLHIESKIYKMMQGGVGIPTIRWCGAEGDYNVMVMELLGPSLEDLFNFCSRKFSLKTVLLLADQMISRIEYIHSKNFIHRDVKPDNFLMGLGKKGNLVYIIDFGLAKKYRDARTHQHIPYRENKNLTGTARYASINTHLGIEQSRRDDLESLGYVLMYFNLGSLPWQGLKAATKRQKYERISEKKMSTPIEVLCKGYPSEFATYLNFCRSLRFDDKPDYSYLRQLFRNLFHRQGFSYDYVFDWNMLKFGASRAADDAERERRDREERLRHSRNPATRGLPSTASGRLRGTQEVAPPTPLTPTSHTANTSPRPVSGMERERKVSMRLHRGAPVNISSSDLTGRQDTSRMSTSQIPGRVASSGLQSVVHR
Excerpt: The capacity of the compounds of the invention to inhibit the phosphorylation of casein by casein kinase 1 epsilon and casein kinase 1 delta can be evaluated using a FRET (Fluorescence Resonance Energy Transfer) fluorescence test by means of the “Z′Lyte™ kinase assay kit” (reference PV3670; Invitrogen Corporation™) according to the supplier's instructions.
The casein kinases 1 used are obtained from Invitrogen Corporation (human CK1 epsilon PV3500 and human CK1 delta PV3665).
A peptide substrate, labelled at both ends with a fluorophore donor group (coumarin) and a fluorophore acceptor group (fluorescein) constituting a FRET system is phosphorylated in the presence of ATP by casein kinase 1 epsilon or delta in the presence of increasing concentrations of compounds of the invention.
The mixture is treated with a site-specific protease that specifically cleaves the peptide substrate so as to form two fluorescent fragments having a large fluorescence emission ratio.
The fluorescence observed is thus related to the capacity of the products of the invention to inhibit the phosphorylation of the peptide substrate by casein kinase 1 epsilon or casein kinase 1 delta. […]
The emitted fluorescence is measured at wavelengths of 445 and 520 nm (excitation at 400 nm).

Structure (SMILES) | CE Delta (t + 1 h) [1] [nM] | IC50 [2] [nM]
OCCN1CCN(c2ccc3nc(-c4ccc(Cl)s4)c(-c4ccncc4)n3n2)CC1 [Compound 14, 2-{4-[2-(5-chlorothien-2-yl)-3-(pyridin-4-yl)imidazo[1,2-b]pyridazin-6-yl](piperazin-1-yl)}ethanol] | 60 to 117 | 93 to 163
Cc1ccc(-c2nc3ccc(N4CCNCC4)nn3c2-c2ccncc2)s1 [Compound 10, 2-(5-methylthien-2-yl)-6-(piperazin-1-yl)-3-(pyridin-4-yl)imidazo[1,2-b]pyridazine] | 360 | 63 to 76
